The source of these data is patent publication US10308595B2, “Albicidin derivatives, their use and synthesis” (priority 2013, dated 2019).

Test [1] relates to test strains of the agar plate tests. Briefly: Test agar plates, control substance in the same tests (strains not named individually). It is filed as cell-based. As to conditions: active substance 1 mg/ml. As for the experimental part:
The dry compounds were dissolved in DMSO (1 mg/ml) and the so obtained stock solution was diluted with sterilized Millipore water 1:10 and 1:100
20 μl of cryo stock of each strain were inoculated to 20 ml of Mueller-Hinton medium and grown overnight at 30° C. or 37° C. on a vertical shaker with 160 rpm. The inoculum for the test was adjusted by the 0.5 McFarland Standard (OD625 from 0.08 to 0.1)
Every plate is prepared by pouring 10 ml Mueller-Hinton agar into standard petri dishes (diam 94 mm). The so obtained Mueller-Hinton plates are overlayed with 4 ml Mueller-Hinton soft agar containing 100 μl suspension of the test strain.
After the soft agar turned solid, sterile susceptibility test discs were circular placed on the agar and on every test disc 10 μl compound was added. Each concentration is tested in triplicate. The agar dishes were incubated for 18 hours at a temperature of 30° C. or 37° C. Results are obtained by measuring the diameter of inhibition area around each test disc.
Test Agar Plates (Active Substance 1 mg/ml) Control Substance: […]

In test [2] the test system is Escherichia coli strains expressing albicidin resistance determinants (DH5aAlbr, albD, alb14, alb19, sbmC). Briefly: Microbiological assay (Zhang et al.) for cross-resistance. It is filed as cell-based. Conditions: synthetic versus natural albicidin, FIG. 11. From the text: The microbiological assay described by Zhang et al., (J Appl Microbiol., 1998, 85, 1023-8) was used to study cross-resistance between synthetic albicidin (10) and the natural product albicidin purified from albicidin heterologous host developed by Vivien et al. (Antimicrob Agents Chemother., 2007, 51, 1549-52). Several Escherichia coli strains expressing a wide range of albicidin resistance determinants were used for this microbiological bioassay: strain DH5aAlbr (a spontaneous albicidin-resistant DH5a derivative; Rott et al., (J. Bacteriol., 1996, 178, 4590-4596.) and strains harboring albD (an albicidin-detoxifying gene, Zhang and Birch (Proc. Natl. Acad. Sci. USA, 1997, 94, 9984-9989.), alb14 (an albicidin efflux pump gene conferring albicidin resistance in E. coli, Bostock et al., (J. Appl. Microbiol., 2006, 101, 151-160.), alb19 (a McbG gene conferring albicidin resistance in E. coli, Hashimi et al. (Antimicrob. Agents Chemother., 2007, 51, 181-187.), or sbmC (a microcin B17 resistance gene, Baquero et al. (Mol. Microbiol., 1995, 18, 301-311.).

The structures appear in SMILES notation.

On to `COc1c(NC(=O)c2ccc(NC(=O)c3ccc(NC(=O)[C@H](CC#N)NC(=O)c4ccc(NC(=O)/C(C)=C/c5ccc(O)cc5)cc4)cc3)c(OC)c2O)ccc(C(=O)O)c1O` [Natural albicidin, Albicidin], for which, in test [1], the “diameter of inhibition, control substance in the same tests” value was “more than 1 cm”. `COc1c(NC(=O)c2ccc(NC(=O)c3ccc(NC(=O)[C@H](CC#N)NC(=O)c4ccc(NC(=O)/C(C)=C/c5ccc(O)cc5)cc4)cc3)c(OC)c2O)ccc(C(=O)O)c1O` [synthetic albicidin (10), (S,E)-4-(4-(4-(3-cyano-2-(4-(3-(4-hydroxyphenyl)-2-methylacrylamido)benzamido)propanamido)benzamido)-2-hydroxy-3-methoxybenzamido)-2-hydroxy-3-methoxybenzoic acid]: the “resistance pattern (cross-resistance) in albicidin-resistant E. coli strains” value in test [2] is “exactly the same”.
